Read-outs that look alike come from different tables or passages of the source.
Experiments:
[1] = tested on: S. mansoni schistosomulae; experiment: Phenotypic primary screen assay on schistosomulae (phenotype; viability by methylene blue dye exclusion); format: cell-based, Schistosoma mansoni; conditions: three-day-old schistosomulae, 10 μM, 24 h; estimated 5 days post compound exposure
Procedure: Puerto Rican strain Biomphalaria glabrata snails infected with S. mansoni were kindly provided by Dr. Fred Lewis (Biomedical Research Institute and BEI Resources, MD, USA). Schistosomulae were obtained by exposing six to eight weeks-old snails to continuous light for 2 h at 32 °C. […] At this point, animals with internal dark granulations and with no observable body contraction/relaxation cycles were considered dead.
Schistosomulae were monitored under a stereo microscope (SMZ1270, Nikon). Phenotypic observations were made by analyzing schistosomulae, 24 h after drug addition to assess any immediate effect and five days post-compound exposure to observe long-term impacts on both the movement and overall body shape in comparison to control animals exposed to DMSO only.

[2] = tested on: S. mansoni schistosomulae; experiment: Motility assay on schistosomulae (pixel displacement, relative to DMSO control); format: cell-based, Schistosoma mansoni; conditions: for activity at 1 µM: Schistosoma mansoni, read-out: Fractional motility; for motility phenotype in words: after 24 h exposure
Procedure: Puerto Rican strain Biomphalaria glabrata snails infected with S. mansoni were kindly provided by Dr. Fred Lewis (Biomedical Research Institute and BEI Resources, MD, USA). Schistosomulae were obtained by exposing six to eight weeks-old snails to continuous light for 2 h at 32 °C. The resulting suspension of cercaria was then mechanically transformed as described ([Lewis, 2001]) and cultured in Opti-MEM/antibiotics (Thermo Fisher Scientific, Waltham, MA) containing 100 μg/mL streptomycin and 100 units/ml penicillin supplemented with 5% fetal bovine serum (FBS; Thermo Fisher). Parasite cultures were incubated at 37 °C with 5% CO2 for at least 10 days with no apparent loss of viability. At this point, animals with internal dark granulations and with no observable body contraction/relaxation cycles were considered dead.
(§1) Schistosomulae (200/well) and adult parasites (unpaired worms) were maintained in 300 μL OPTI-MEM with 5% dialyzed FBS (without antibiotics) and exposed to compounds at 1 and 10 μM for 24 h. A kinetic assay consisting of 1, 3, 6 and 12 h incubation times was performed on selected hits by motility monitoring using a stereo microscope (SMZ1270, Nikon) for adults and an inverted microscope for schistosomulae (eclipse TE2000-U, Nikon) connected to a monochrome camera (DS-Qi2, Nikon) for image acquisition. Images were recorded at a rate of 10 frames/s for a period of 1 min and videos were analyzed using ImageJ software (version 1.41, NIH, USA). Parasite movement quantification and data analysis protocols were applied using the pixel displacement method ([Patocka et al., 2014]; [Rashid et al., 2015]) and compared to control parasites treated with DMSO. Parasites were then washed several times in Opti-MEM, 5% FBS and incubated up to an additional three days (schistosomulae) or five days (adult worms) at 37 °C, 5% CO2 and motility was recorded as described above.

S. mansoni adult worms = experiment: Motility assay on adult parasites (pixel displacement, relative to DMSO control); format: cell-based, Schistosoma mansoni; conditions: for Fractional motility: 10 μM
Procedure: Adult parasites were collected from 40 day-old female CD1 mice (Charles River) previously inoculated by the tail infection method ([Lewis, 2001]). Six weeks post-infection, mice were sacrificed, and adult worms extracted after perfusion of in the hepatic portal vein and mesenteric venules ([Lewis, 2001]). Animal procedures were reviewed and approved by the Facility Animal Care Committee of McGill University (Protocol No. 3346) and were conducted in accordance with the guidelines of the Canadian Council on Animal Care.
as §1

[3] = tested on: S. mansoni schistosomulae; experiment: Phenotypic primary screen assay on schistosomulae (phenotype; viability by methylene blue dye exclusion); format: cell-based; conditions: Schistosoma mansoni; three-day-old schistosomulae, 10 μM, 24 h; calculated 5 days post compound exposure; read-out: Viability (%)
[4] = schistosomulae, 1h exposure, read at D1, 10 µM
[5] = schistosomulae, 1h exposure, read at D5, 10 µM
[6] = schistosomulae, 3h exposure, read at D1, 10 µM
[7] = schistosomulae, 3h exposure, read at D5, 10 µM
[8] = schistosomulae, 6h exposure, read at D1, 10 µM
[9] = schistosomulae, 6h exposure, read at D5, 10 µM
[10] = schistosomulae, secondary screen, 24h exposure, read at D1, 1 µM
[11] = schistosomulae, secondary screen, 24h exposure, read at D1, 10 µM
[12] = schistosomulae, secondary screen, 24h exposure, read at D5, 10 µM
[13] = secondary screen, D1, Female adult worms
[14] = secondary screen, D1, Male adult worms
[15] = secondary screen, D5, Female adult worms
[16] = secondary screen, D5, Male adult worms
[17] = 120 h, schistosomulae, secondary screen, 24h exposure, read at D5, 1 µM
[18] = Selleckchem customized library secondary screen, 24h, D1, 10 µM
[19] = Selleckchem customized library secondary screen, 24h, D5, 10 µM

SMILES | Phenotype [1] | Fractional motility [2, 11] | Fractional motility [2, 12] | Fractional motility (S. mansoni adult worms; [13]) | Fractional motility (S. mansoni adult worms; [14]) | Fractional motility (S. mansoni adult worms; [15]) | Fractional motility (S. mansoni adult worms; [16]) | viability at 10 µM [3] [%] | activity at 1 µM [2, 17] [%] | activity at 1 µM [2, 10] [%] | other results
COC(=O)C1=CCCN(C)C1 [Arecoline] | round body, blebbing | -0.93 | 1.49 | -0.92 | -0.79 | -0.72 | -0.0374 | 96.5 | – | – | Fractional motility ([2]; Arecoline and analogs, 24h, D1, 10 µM): -0.93; Fractional motility ([2]; Arecoline and analogs, 24h, D5, 10 µM): 1.49; activity at 1 µM ([2]; 120 h, Arecoline and analogs, 24h, D5, 1 µM): 122%; activity at 1 µM ([2]; Arecoline and analogs, 24h, D1, 1 µM): -93%; Fractional motility [2, 4]: -0.93; Fractional motility [2, 5]: -0.87; Fractional motility [2, 6]: -0.70; Fractional motility [2, 7]: -0.72; Fractional motility [2, 8]: -0.86; Fractional motility [2, 9]: -0.49; motility phenotype in words ([2]; schistosomulae): short term, pronounced paralysis; Fractional motility [2, 10]: -0.93; Fractional motility ([2]; schistosomulae, secondary screen, 24h exposure, read at D5, 1 µM): 1.22; Fractional motility (S. mansoni adult worms; Arecoline and analogs, D1, Female adult worms): -0.92; Fractional motility (S. mansoni adult worms; Arecoline and analogs, D1, Male adult worms): -0.79; Fractional motility (S. mansoni adult worms; Arecoline and analogs, D5, Female adult worms): -0.72; Fractional motility (S. mansoni adult worms; Arecoline and analogs, D5, Male adult worms): -0.0374; motility phenotype in words (S. mansoni adult worms; adults, after 24 h exposure): nearly complete paralysis
CNCc1ccc(C)c(NC(=O)c2ccc(Nc3nc(-c4ccccc4)c4ccccc4n3)cc2)c1 [BMS-833923] | big, granulated | 10.40 | -0.90 | -0.84 | -0.59 | -0.64 | 0.14 | 32.5 | -48 | 10 | –
CN(C)CC/C=C1/c2ccccc2Sc2ccc(Cl)cc21 [Chlorprothixene] | elongated | – | – | 2.18 | 2.53 | 0.23 | 0.16 | 99 | – | – | activity at 1 µM ([2]; 120 h, Selleckchem customized library secondary screen, 24h, D5, 1 µM): 207%; Fractional motility [2, 18]: 73.31; Fractional motility [2, 19]: 9.20; motility phenotype in words ([2]; schistosomulae): high levels of hypermotility
CCN(CC)CCOc1ccc(C(=C(Cl)c2ccccc2)c2ccccc2)cc1 [Clomifene] | big, granulated | 1.47 | 0.15 | -0.44 | – | -0.03 | -0.17 | 100 | 49 | 12 | –
CN1CCN(C2=Nc3cc(Cl)ccc3Nc3ccccc32)CC1 [Clozapine] | elongated | 23.43 | -0.13 | 2.39 | 2.19 | -0.70 | 0.45 | 98 | 121 | 625 | –
C=C1C(=O)O[C@@H]2/C=C(\C)CC/C=C(\C)CC[C@@H]12 [Costunolide] | big, granulated | -0.92 | -0.94 | -0.10 | – | -0.83 | – | 1.5 | 16 | -57 | Fractional motility [2, 4]: -0.77; Fractional motility [2, 5]: -0.29; Fractional motility [2, 6]: 0.34; Fractional motility [2, 7]: 1.03; Fractional motility [2, 8]: 2.25; Fractional motility [2, 9]: -0.56; motility in extended assay with reduced incubation times, in words ([2]; three-day old schistosomulae, incubation 1 h, 3 h, 6 h): did not exhibit a significant change before the 24 hr incubation cut-off
CN(C)[C@@H](CCOc1cccc2ccccc12)c1ccccc1 [Dapoxetine] | elongated, granulated | – | – | 2.14 | 2.05 | -0.24 | -0.50 | 97.5 | – | – | activity at 1 µM ([2]; Selleckchem customized library secondary screen, 24h, D1, 1 µM): 253%; Fractional motility [2, 18]: 69.58; Fractional motility [2, 19]: 15.51

— PMC7284125, “Identification of annotated bioactive molecules that impair motility of the blood fluke Schistosoma mansoni” (International Journal for Parasitology: Drugs and Drug …, 2020)
